Assay results reported in US7880007B2, “Bicyclic substituted phenyl piperidine modulators of muscarinic receptors” (Vertex Pharmaceuticals Incorporated, priority 2004, dated 2011).

Assays:
Type in all cases: cell-based
M3 muscarinic receptor = molecular target: T1, M3 muscarinic receptor (Homo sapiens, UniProt P20309); test: Functional mobilization of intracellular calcium (FLIPR), M3-CHO cells; details: for M3 Activity: M3-CHO cells, calcium mobilization (FLIPR)
T1 construct: expressed in transfected cells; host or cells: CHO (M3-CHO)
Summary of the method: (§1)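 CHO cells expressing human M1–M4 receptors loaded with Fluo-3 AM or Calcium 3 dye (1 mM probenecid, pH 7.4); 0.5% DMSO final. Agonist mode: compound added directly; antagonist mode: 15 min pre-incubation or co-application, then carbachol at EC80. Fluorescence read 60 s on FLIPR; efficacy relative to carbachol maximum.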

M4 muscarinic receptor = molecular target: T2, M4 muscarinic receptor (Homo sapiens, UniProt P08173); test: Functional mobilization of intracellular calcium (FLIPR), M4-CHO cells; details: for M4 Activity: M4-CHO cells, calcium mobilization (FLIPR)
T2 construct: expressed in transfected cells; host or cells: CHO (M4-CHO)
T2 sequence (P08173 1-479): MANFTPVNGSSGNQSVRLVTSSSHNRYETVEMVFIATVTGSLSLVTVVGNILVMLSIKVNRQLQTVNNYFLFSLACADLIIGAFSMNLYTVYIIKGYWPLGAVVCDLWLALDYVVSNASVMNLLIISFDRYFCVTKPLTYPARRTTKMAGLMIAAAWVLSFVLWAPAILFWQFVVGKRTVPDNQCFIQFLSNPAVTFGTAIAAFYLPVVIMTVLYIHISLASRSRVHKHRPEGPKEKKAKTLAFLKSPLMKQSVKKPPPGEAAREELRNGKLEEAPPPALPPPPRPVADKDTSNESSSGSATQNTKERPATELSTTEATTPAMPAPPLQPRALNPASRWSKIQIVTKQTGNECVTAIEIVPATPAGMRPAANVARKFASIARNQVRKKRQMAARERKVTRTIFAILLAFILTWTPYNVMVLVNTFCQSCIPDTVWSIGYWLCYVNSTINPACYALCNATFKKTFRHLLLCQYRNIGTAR
Summary of the method: as §1

M2 muscarinic receptor = molecular target: T3, M2 muscarinic receptor (Homo sapiens, UniProt P08172); test: Functional mobilization of intracellular calcium (FLIPR), M2-CHO cells; details: for M2 Activity: M2-CHO cells, calcium mobilization (FLIPR)
T3 construct: expressed in transfected cells; host or cells: CHO (M2-CHO)
T3 sequence (P08172 1-466): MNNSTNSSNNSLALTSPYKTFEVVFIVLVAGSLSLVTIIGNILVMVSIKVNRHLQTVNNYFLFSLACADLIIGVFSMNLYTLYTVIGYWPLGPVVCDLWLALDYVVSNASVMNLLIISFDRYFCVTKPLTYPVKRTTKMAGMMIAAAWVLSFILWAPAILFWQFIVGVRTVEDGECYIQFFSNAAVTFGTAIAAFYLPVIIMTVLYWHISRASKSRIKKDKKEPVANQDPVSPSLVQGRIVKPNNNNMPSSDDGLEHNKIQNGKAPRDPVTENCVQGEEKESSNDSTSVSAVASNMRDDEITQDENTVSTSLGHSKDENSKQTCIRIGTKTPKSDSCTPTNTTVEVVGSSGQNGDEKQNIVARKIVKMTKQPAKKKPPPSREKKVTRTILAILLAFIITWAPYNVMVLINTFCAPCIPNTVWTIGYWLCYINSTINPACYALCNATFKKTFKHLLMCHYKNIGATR
Summary of the method: as §1

M1 muscarinic receptor = molecular target: T4, M1 muscarinic receptor (Homo sapiens, UniProt P11229); test: Functional mobilization of intracellular calcium (FLIPR), M1-CHO cells; details: for M1 Activity: M1-CHO cells, calcium mobilization (FLIPR)
T4 construct: expressed in transfected cells; host or cells: CHO (M1-CHO)
T4 sequence (P11229 1-460): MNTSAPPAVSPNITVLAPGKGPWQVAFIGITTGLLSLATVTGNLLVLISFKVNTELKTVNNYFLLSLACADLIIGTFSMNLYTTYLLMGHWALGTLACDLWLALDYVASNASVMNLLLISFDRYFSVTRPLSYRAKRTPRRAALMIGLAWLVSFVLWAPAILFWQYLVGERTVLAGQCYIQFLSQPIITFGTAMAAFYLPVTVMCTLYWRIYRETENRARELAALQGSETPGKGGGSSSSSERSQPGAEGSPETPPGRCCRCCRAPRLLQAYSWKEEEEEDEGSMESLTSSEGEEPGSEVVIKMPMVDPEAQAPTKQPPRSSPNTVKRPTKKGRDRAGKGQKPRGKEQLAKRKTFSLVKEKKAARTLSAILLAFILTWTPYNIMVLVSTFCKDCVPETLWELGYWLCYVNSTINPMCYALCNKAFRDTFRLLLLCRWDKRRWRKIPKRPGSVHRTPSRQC
Summary of the method: as §1

[1] = 100% efficacy = maximum response obtained with the Carbachol control

T1 sequence (P20309 whole entry): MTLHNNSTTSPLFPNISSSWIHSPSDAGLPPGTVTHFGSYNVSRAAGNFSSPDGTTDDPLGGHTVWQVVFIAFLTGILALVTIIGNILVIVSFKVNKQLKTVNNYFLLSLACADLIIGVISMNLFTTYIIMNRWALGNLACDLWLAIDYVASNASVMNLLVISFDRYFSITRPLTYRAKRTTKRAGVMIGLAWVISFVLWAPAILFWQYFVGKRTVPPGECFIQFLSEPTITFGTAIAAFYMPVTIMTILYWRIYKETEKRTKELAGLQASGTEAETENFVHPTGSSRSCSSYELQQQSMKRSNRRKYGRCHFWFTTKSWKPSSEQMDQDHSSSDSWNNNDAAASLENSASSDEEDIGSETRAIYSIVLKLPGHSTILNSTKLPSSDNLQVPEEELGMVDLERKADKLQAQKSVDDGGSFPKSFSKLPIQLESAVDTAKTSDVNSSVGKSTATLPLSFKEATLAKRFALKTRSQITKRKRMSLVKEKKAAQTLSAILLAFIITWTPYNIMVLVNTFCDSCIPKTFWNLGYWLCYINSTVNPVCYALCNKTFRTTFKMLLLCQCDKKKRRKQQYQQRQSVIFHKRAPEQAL

Structure (SMILES)	Emax (M3 muscarinic receptor; [1])	M3 Activity (M3 muscarinic receptor)	Emax (M4 muscarinic receptor; [1])	M4 Activity (M4 muscarinic receptor)	Emax (M2 muscarinic receptor; [1])	M2 Activity (M2 muscarinic receptor)	Emax (M1 muscarinic receptor; [1])	M1 Activity (M1 muscarinic receptor)	M3 Efficacy (M3 muscarinic receptor; [1])	M4 Efficacy (M4 muscarinic receptor; [1])	M2 Efficacy (M2 muscarinic receptor; [1])	M1 Efficacy (M1 muscarinic receptor; [1])
Cc1ccc(-c2ccccc2C2CCN([C@H]3C[C@H]4CC[C@H]3C4)CC2)cc1 [Compound 45]	< 25%	+ (activity was measured to be greater than 5.0 μM)	25 to 100%	+ (activity was measured to be greater than 5.0 μM)	< 25%	+ (activity was measured to be greater than 5.0 μM)	< 25%	+ (activity was measured to be greater than 5.0 μM)	–	–	–	–
Cc1ccccc1C1CCN(CC2CC3C=CC2C3)CC1 (centres unmarked) [Compound 46]	–	+ (activity was measured to be greater than 5.0 μM)	25 to 100%	+++ (activity was measured to be less than 1.0 μM)	25 to 100%	+ (activity was measured to be greater than 5.0 μM)	25 to 100%	++ (activity was measured to be from 1.0 μM to 5.0 μM)	–	–	–	–
CCCOc1ccccc1C1CCN([C@H]2C[C@H]3CC[C@H]2C3)CC1 [Compound 47]	< 25%	+ (activity was measured to be greater than 5.0 μM)	25 to 100%	++ (activity was measured to be from 1.0 μM to 5.0 μM)	< 25%	+ (activity was measured to be greater than 5.0 μM)	25 to 100%	+ (activity was measured to be greater than 5.0 μM)	–	–	–	–
COc1ccc(-c2ccc(F)cc2F)cc1C1CCN([C@H]2C[C@H]3CC[C@H]2C3)CC1 [Compound 48]	< 25%	+ (activity was measured to be greater than 5.0 μM)	25 to 100%	+ (activity was measured to be greater than 5.0 μM)	< 25%	+ (activity was measured to be greater than 5.0 μM)	25 to 100%	+ (activity was measured to be greater than 5.0 μM)	–	–	–	–
COc1cc(F)c(F)c(C2CCN(C3CCOCC3)CC2)c1 [Compound 49]	< 25%	+ (activity was measured to be greater than 5.0 μM)	25 to 100%	+++ (activity was measured to be less than 1.0 μM)	< 25%	+ (activity was measured to be greater than 5.0 μM)	25 to 100%	+ (activity was measured to be greater than 5.0 μM)	–	–	–	–
COc1ccc(C(=O)c2ccccc2)cc1C1CCN([C@H]2C[C@H]3CC[C@H]2C3)CC1 [Compound 50]	< 25%	+ (activity was measured to be greater than 5.0 μM)	25 to 100%	++ (activity was measured to be from 1.0 μM to 5.0 μM)	< 25%	+ (activity was measured to be greater than 5.0 μM)	25 to 100%	+ (activity was measured to be greater than 5.0 μM)	–	–	–	–
COc1ccc(C)cc1C1CCN(C2C[C@H]3CC[C@H]2C3)CC1 (some centres unmarked) [Compound 51]	< 25%	+ (activity was measured to be greater than 5.0 μM)	25 to 100%	+++ (activity was measured to be less than 1.0 μM)	25 to 100%	+ (activity was measured to be greater than 5.0 μM)	25 to 100%	++ (activity was measured to be from 1.0 μM to 5.0 μM)	–	–	–	–
COc1ccc(-c2ccc3c(c2)OCO3)cc1C1CCN(C2CCOCC2)CC1 [Compound 52]	< 25%	+ (activity was measured to be greater than 5.0 μM)	25 to 100%	+ (activity was measured to be greater than 5.0 μM)	< 25%	+ (activity was measured to be greater than 5.0 μM)	< 25%	+ (activity was measured to be greater than 5.0 μM)	–	–	–	–
COc1ccc(Cl)cc1C1CCN(C2CCC(=NOC3CCCCO3)CC2)CC1 (centres unmarked) [Compound 54]	–	+ (activity was measured to be greater than 5.0 μM)	–	+++ (activity was measured to be less than 1.0 μM)	–	+ (activity was measured to be greater than 5.0 μM)	–	++ (activity was measured to be from 1.0 μM to 5.0 μM)	+ (efficacy was calculated to be less than 25%)	++ (efficacy was calculated to be from 100% to 25%)	+ (efficacy was calculated to be less than 25%)	++ (efficacy was calculated to be from 100% to 25%)
COc1ccc(C(=O)COc2ccccc2C2CCN([C@H]3C[C@H]4CC[C@H]3C4)CC2)cc1 [Compound 57]	< 25%	+ (activity was measured to be greater than 5.0 μM)	25 to 100%	++ (activity was measured to be from 1.0 μM to 5.0 μM)	25 to 100%	++ (activity was measured to be from 1.0 μM to 5.0 μM)	25 to 100%	++ (activity was measured to be from 1.0 μM to 5.0 μM)	–	–	–	–
COc1ccc(F)cc1C1(F)CCN(C2CCCCC2)CC1 [Compound 59]	< 25%	+ (activity was measured to be greater than 5.0 μM)	25 to 100%	++ (activity was measured to be from 1.0 μM to 5.0 μM)	< 25%	+ (activity was measured to be greater than 5.0 μM)	25 to 100%	+ (activity was measured to be greater than 5.0 μM)	–	–	–	–
COc1ccc(F)cc1C1(O)CCN(C[C@@H]2C[C@H]3C=C[C@H]2C3)CC1 [Compound 60]	< 25%	+ (activity was measured to be greater than 5.0 μM)	25 to 100%	++ (activity was measured to be from 1.0 μM to 5.0 μM)	< 25%	+ (activity was measured to be greater than 5.0 μM)	< 25%	+ (activity was measured to be greater than 5.0 μM)	–	–	–	–
Cc1ccc(C)c(C2(O)CCN(CC3CC4C=CC3C4)CC2)c1 (centres unmarked) [Compound 62, 1-((bicyclo[2.2.1]hept-5-en-2-yl)methyl)-4-(2,5-dimethylphenyl)piperidin-4-ol]	–	+ (activity was measured to be greater than 5.0 μM)	25 to 100%	++ (activity was measured to be from 1.0 μM to 5.0 μM)	< 25%	+ (activity was measured to be greater than 5.0 μM)	25 to 100%	++ (activity was measured to be from 1.0 μM to 5.0 μM)	–	–	–	–
CCOC(=O)N1CCC(CN2CCC(c3cc(F)cc(F)c3OC)CC2)CC1 [Compound 65]	< 25%	+ (activity was measured to be greater than 5.0 μM)	25 to 100%	+++ (activity was measured to be less than 1.0 μM)	< 25%	+ (activity was measured to be greater than 5.0 μM)	25 to 100%	+++ (activity was measured to be less than 1.0 μM)	–	–	–	–
